# Test results: patent US10213486B2, “Formulations of diluted amino acid segments and methods for making same” (priority 2011, dated 2019)
# Peptide text beside a SMILES is read from it.
# Assay: physchem
# From the text: The segments were synthesized at a cGMP facility using standard techniques for amino acid synthesis.
compound,measurement,value
CC[C@H](C)[C@H](NC(=O)[C@@H]1CCCN1C(=O)[C@H](C)NC(=O)CNC(=O)[C@@H]1CCCN1C(=O)[C@H](CCC(N)=O)NC(=O)[C@H](CO)NC(=O)[C@H](Cc1ccccc1)NC(=O)[C@H](Cc1ccccc1)NC(=O)[C@@H]1CCCN1C(=O)[C@H](CC(N)=O)NC(=O)[C@H](CCC(=O)O)NC(=O)[C@H](CCC(N)=O)NC(=O)[C@H](CC(C)C)NC(=O)[C@@H](NC(=O)[C@H](CS)NC(=O)[C@H](CCC(=O)O)NC(=O)[C@@H]1CCCN1C(=O)[C@H](CS)NC(=O)[C@H](CC(=O)O)NC(=O)[C@H](CCC(N)=O)NC(=O)[C@@H](NC(=O)[C@H](CC(=O)O)NC(=O)[C@@H]1CCCN1C(=O)[C@H](C)N)C(C)C)[C@@H](C)O)C(=O)O [first amino acid segment] (H-APDVQDCPECTLQENPFFSQPGAPI-OH),solubility,1000 µg/mL
